Results taken from US20240252658A1, “BIFUNCTIONAL PROTAC-TYPE COMPOUNDS TARGETING PXR, METHOD FOR PREPARING SAME AND THERAPEUTIC USE THEREOF” (Centre National de la Recherche Scientifique, priority 2021, published 2024).

Legend:
[1] = target: T1, PXR ligand binding domain (LBD) (Homo sapiens, UniProt O75469); assay: LanthaScreen TR-FRET PXR competitive binding assay; details: displacement of fluorescent reference ligand, 1:30 hours at room temperature, read-out: affinity for PXR
T1 construct: purchased Invitrogen
T1 sequence (O75469 146-433 limits assumed): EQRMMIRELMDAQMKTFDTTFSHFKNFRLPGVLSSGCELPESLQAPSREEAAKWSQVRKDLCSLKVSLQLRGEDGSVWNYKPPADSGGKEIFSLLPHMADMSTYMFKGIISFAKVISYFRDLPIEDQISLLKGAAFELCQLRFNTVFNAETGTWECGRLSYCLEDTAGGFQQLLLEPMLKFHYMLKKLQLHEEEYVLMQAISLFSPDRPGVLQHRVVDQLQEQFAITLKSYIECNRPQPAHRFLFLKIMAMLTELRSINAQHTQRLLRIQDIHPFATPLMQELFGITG
Experimental: The molecules were incubated for 1:30 hours at room temperature with the PXR LBD in the presence of a fluorescent reference ligand. The displacement of the fluorescent ligand caused by the prePROTAC or the PXR SR12813 ligand was measured by reading emissions at 520 nm and 495 nm after excitation at 337 nm on a PHERA-Star apparatus (BMG LABTECH).

PXR [2] = assay: CYP3A4 mRNA expression by RT-qPCR in LS174T cells; assay type: cell-based; details: 5 μM, 48 h, with rifampicin 5 μM
Experimental: . After lysis of the cells and purification of the total RNAs (Qiagen RNAeasy), the complementary DNAs were prepared (SuperScript II in the presence of random primers of 6 nucleotides, Invitrogen). The expression of CYP3A4 mRNA and RPLO and actin housekeeping genes was measured by RT-qPCR on an LC480 apparatus (Roche) in the presence of SyberGreen (Millipore). The relative expression levels were calculated according to the RQ=Relative quantification=2-ΔΔCt method, the untreated cells serving as a calibrator set to 1. […]

PXR [3] = assay: CYP3A4 protein expression by western blotting in LS174T cells; assay type: cell-based; design: dose or concentration left out as unconfirmed; details: 48 h
Experimental: The LS174T cells were treated for 48 h with […] JMV7048 in the presence or absence of rifampicin (PXR ligand) at […] final. After lysis of the cells (RIPA+antiproteases), the proteins were purified and assayed before being deposited (90 μg) on 10% SDS-PAGE gel. […] The intensities of the signals were measured by a camera (BioRad MP Touch).

LS174T = assay: Cell viability, Sulforhodamine B, LS174T; assay type: cell-based; details: LS174T line, increasing concentrations, 72 h
Experimental: (§1) The effect of PROTACs on cell viability has been tested on various lines CRC1, HT29 and LS174T. The cells were incubated in the presence of increasing concentrations of molecules for 72 h before being fixed and marked by Sulforhodamine B (Sigma). After washing and lysis of the cells, the incorporated colorant released by the cells is directly proportional to the cell biomass. It is measured at […] by a 96-well plate spectrophotometer (Tecan). The signal obtained for the untreated cells is set at 100%.

HT29 cells [4] = assay: Cell viability, Sulforhodamine B, HT29; assay type: cell-based; details: increasing concentrations, 72 h
Experimental: as §1

CRC1 = assay: Cell viability, Sulforhodamine B, CRC1; assay type: cell-based; details: CRC1 protoculture, increasing concentrations, 72 h
Experimental: as §1

CRC1 cells = assay: Aldefluor marking of cancer stem cells, CRC1; assay type: cell-based; details: 5 μM, 48 h, compared to untreated cells
Experimental: (§2) The effects of the PROTACs on the survival and self-renewal of colic cancer stem cells were studied in vitro on the HT29 line or cancer cells isolated from patients (CRC1). The cells were treated with or without 5 μM PROTACs for 48 h before being analyzed: Aldefluor marking, enzymatic activity preferentially present in cancer stem cells (FIG. 10A); formation of tumorspheres under aseric and non-adherent conditions (FIG. 10B), and finally resistance to chemotherapy (FIGS. […] and 10D).
(§3) The tumorspheres with a diameter of more than 50 μM were counted 10 days after treatment and culturing of 200 cells per well (previously treated with poly2Hema in order to prevent any cell adhesion) in 100 μL of depleted BCS medium. These culture conditions allow only the survival of cancer stem cells. FIGS. 10C and 10D show the effects of the PROTACs JMV7048 and JMV7965 on survival (10C) and the ability to form tumorspheres (10D) of the HT29 cells maintained in the presence of different concentrations of 5-FU and SN38 (Folfiri 1X=50 μg 5-FU+500 nM SN38) and cultured in 100 μL of depleted BCS medium in dishes pretreated with poly2Hema in order to prevent any cell adhesion. The tumorspheres with a diameter of more than 50 μM were counted 10 days after seeding 200 cells/well.

HT29 cells [5] = assay: Tumorsphere formation (Sphere Forming Cells), HT29; assay type: cell-based; details: 5 μM, 48 h, spheres counted after 10 days
Experimental: as §2, §3

HT29 cells [6] = assay: Survival and chemoresistance of cancer stem cells in colon cancer cell lines; assay type: cell-based; details: 5 μM for 2 days, 5-FU and SN38 (Folfiri)
Experimental: as §2, §3

PXR protein [7] = target: T2, PXR protein (Homo sapiens, UniProt O75469); assay: PXR degradation in LS174T cells by in vitro western blotting; assay type: cell-based; design: endogenous in cells; host or cells: LS174T; details: for expression level of the PXR protein: 5 μM, 24 h of treatment
T2 sequence (O75469 1-434): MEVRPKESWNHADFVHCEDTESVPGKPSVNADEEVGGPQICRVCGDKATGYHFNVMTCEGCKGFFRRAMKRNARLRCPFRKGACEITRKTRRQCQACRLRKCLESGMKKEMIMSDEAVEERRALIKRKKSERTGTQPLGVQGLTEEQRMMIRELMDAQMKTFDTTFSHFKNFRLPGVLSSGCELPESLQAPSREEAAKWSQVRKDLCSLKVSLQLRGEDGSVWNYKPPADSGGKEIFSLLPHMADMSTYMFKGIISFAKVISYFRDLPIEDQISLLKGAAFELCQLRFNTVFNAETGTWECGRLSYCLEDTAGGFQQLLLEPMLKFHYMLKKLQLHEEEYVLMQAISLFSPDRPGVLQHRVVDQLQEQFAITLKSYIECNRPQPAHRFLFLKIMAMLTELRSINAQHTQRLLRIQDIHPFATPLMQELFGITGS
Experimental: The effect of the PROTACs on the expression level of the PXR protein was studied by western blotting. The LS174T cells were […] in the absence or presence of 50 nM of an siRNA targeting PXR (siPXR: NR112 Silencer, Thermofischer) or treated by the PROTACs. After lysis of the cells (RIPA+antiproteases), the proteins were purified and assayed before being deposited ([…]) on 10% SDS-PAGE gel. […] The intensities of the signals were measured by a camera (BioRad MP Touch). […] FIGS. 6D and 6E illustrate the effect of JMV7048 on the expression level of PXR based on the treatment time (maximum effect reached after 3 h of treatment) and the concentration used (decrease dependent on the dose, with a maximum effect observed from 500 nM).

PXR protein [8] = target: T2, PXR protein; assay: Importance of the proteasome pathway for PXR degradation, western blotting in LS174T cells; assay type: cell-based; design: endogenous in cells; host or cells: LS174T; details: 24 hours
Experimental: The involvement of the proteasome pathway in the effects of PROTACs on the expression level of the PXR protein was studied by western blotting. The LS174T cells were treated for 24 hours with JMV7048 in the presence or absence of the […] (MLN4924) or the proteasome inhibitor (Bortezomib).

| Structure (SMILES) | effect on expression of CYP3A4 mRNA induced by rifampicin (PXR [2]) | toxicity (cell viability) (LS174T) | percentage of ALDH-positive cells (CRC1 cells) | expression level of the PXR protein (PXR protein [7]) | also measured |
| --- | --- | --- | --- | --- | --- |
| Cc1cc(C)c(S(=O)(=O)Nc2ccc3c(c2)nc(CCCCCCCN)n3Cc2ccccc2)c(C)c1 [JMV6944, N-[2-(7-aminoheptyl)-1-benzyl-1H-1,3-benzodiazol-5-yl]-2,4,6-trimethylbenzene-1-sulfonamide] | additive effect on the expression of CYP3A4 mRNA |  |  |  | Kd [1]: 0.0184 µM |
| Cc1cc(C)c(S(=O)(=O)Nc2ccc3c(c2)nc(CCCCCCCNC(=O)CCCCCN2CCN(c4ccc5c(c4)C(=O)N(C4CCC(=O)NC4=O)C5=O)CC2)n3Cc2ccccc2)c(C)c1 (centres unmarked) [JMV7048] | significantly reduce the induction of CYP3A4 | absence of toxicity | significantly reduce the percentage of ALDH-positive cells | significantly reduce the expression level of the PXR protein | effect on induction of the CYP3A4 enzyme mediated by rifampicin (PXR [3]): reduce the induction of the CYP3A4 enzyme; cell viability (HT29 cells [4]): does not affect the viability; cell viability (CRC1): does not affect the viability; number of cells capable of surviving anoikis and forming tumorspheres (Sphere Forming Cells) (HT29 cells [5]): significantly reduce the number of HT29 cells; survival and chemoresistance of stem cells (HT29 cells [6]): significantly reduces the survival and chemoresistance of stem cells; treatment time at which maximum effect on PXR expression level is reached (PXR protein [7]): 3 h; concentration from which maximum effect on PXR expression level is observed (PXR protein [7]; decrease dependent on the dose): ≥ 500 nM; decrease in PXR expression level with MLN4924 or Bortezomib (PXR protein [8]; with or without MLN4924 or Bortezomib): reverted by the CRBN ubiquitin ligase inhibitors (MLN4924, FIG. 8A) or by an inhibitor of the 26S proteasome |
| Cc1cc(C)c(S(=O)(=O)Nc2ccc3c(c2)nc(CCCCCCCNC(=O)CCCCCN2CCN(C4CCC5C(=O)N(C6CCC(=O)N(C)C6=O)C(=O)C5C4)CC2)n3Cc2ccccc2)c(C)c1 (centres unmarked) [JMV7159] | additive effect on the expression of CYP3A4 mRNA |  |  |  | expression level of the PXR protein (PXR protein [8]): does not cause a decrease in the expression level of PXR |
| Cc1cc(C)c(S(=O)(=O)Nc2ccc3c(c2)nc(CCCCCCCNC(=O)CCCCCCN2CCN(c4ccc5c(c4)C(=O)N(C4CCC(=O)NC4=O)C5=O)CC2)n3Cc2ccccc2)c(C)c1 (centres unmarked) [JMV7505] |  | absence of toxicity | significantly reduce the percentage of ALDH-positive cells | significantly reduce the expression level of the PXR protein |  |
| Cc1cc(C)c(S(=O)(=O)Nc2ccc3c(c2)nc(CCCCCCCNC(=O)CCCCCCCN2CCN(c4ccc5c(c4)C(=O)N(C4CCC(=O)NC4=O)C5=O)CC2)n3Cc2ccccc2)c(C)c1 (centres unmarked) [JMV7506] |  |  | significantly reduce the percentage of ALDH-positive cells | significantly reduce the expression level of the PXR protein |  |
| Cc1cc(C)c(S(=O)(=O)Nc2ccc3c(c2)nc(CCCCCCCNC(=O)CCCCCCN2CCN(c4ccc(C(=O)NC5CCC(=O)NC5=O)cc4)CC2)n3Cc2ccccc2)c(C)c1 (centres unmarked) [JMV7605] |  | absence of toxicity |  | significantly reduce the expression level of the PXR protein |  |
| Cc1cc(C)c(S(=O)(=O)Nc2ccc3c(c2)nc(CCCCCCCNC(=O)CN2CCC(CN4CCN(c5ccc6c(c5)C(=O)N(C5CCC(=O)NC5=O)C6=O)CC4)CC2)n3Cc2ccccc2)c(C)c1 (centres unmarked) [JMV7965] | significantly reduce the induction of CYP3A4 |  | significantly reduce the percentage of ALDH-positive cells | significantly reduce the expression level of the PXR protein | effect on induction of the CYP3A4 enzyme mediated by rifampicin (PXR [3]): reduce the induction of the CYP3A4 enzyme; number of cells capable of surviving anoikis and forming tumorspheres (Sphere Forming Cells) (HT29 cells [5]): significantly reduce the number of HT29 cells; survival and chemoresistance of stem cells (HT29 cells [6]): significantly reduces the survival and chemoresistance of stem cells |
